In US20260028365A1 (BIOGEN MA INC., priority 2022, published 2026):

target: Tyk2 (Homo sapiens (Human), UniProt P29597); test: pSTAT4 Cell Assay (MSD, NK92 cells); format: cell-based; settings: not given
Method: The inhibitory potency of compounds of the disclosure against the Tyk2 kinase activity on STAT4 was evaluated using an MSD-platform plate-based assay format. NK92 cells natively expressing STAT4 and Tyk2 were serum-starved to reduce background phosphorylation levels, then cells were treated compounds for 1 hr with a 10-point four-fold dilution series starting at 10 μM. Cells were then stimulated with 30 ng/mL […] for 15 minutes. […] The data were normalized and the percent activity versus log concentration of compound were fitted with a 4-parameter logistic model to generate to generate IC50 curves.

Tyk2, sequence (P29597 whole entry): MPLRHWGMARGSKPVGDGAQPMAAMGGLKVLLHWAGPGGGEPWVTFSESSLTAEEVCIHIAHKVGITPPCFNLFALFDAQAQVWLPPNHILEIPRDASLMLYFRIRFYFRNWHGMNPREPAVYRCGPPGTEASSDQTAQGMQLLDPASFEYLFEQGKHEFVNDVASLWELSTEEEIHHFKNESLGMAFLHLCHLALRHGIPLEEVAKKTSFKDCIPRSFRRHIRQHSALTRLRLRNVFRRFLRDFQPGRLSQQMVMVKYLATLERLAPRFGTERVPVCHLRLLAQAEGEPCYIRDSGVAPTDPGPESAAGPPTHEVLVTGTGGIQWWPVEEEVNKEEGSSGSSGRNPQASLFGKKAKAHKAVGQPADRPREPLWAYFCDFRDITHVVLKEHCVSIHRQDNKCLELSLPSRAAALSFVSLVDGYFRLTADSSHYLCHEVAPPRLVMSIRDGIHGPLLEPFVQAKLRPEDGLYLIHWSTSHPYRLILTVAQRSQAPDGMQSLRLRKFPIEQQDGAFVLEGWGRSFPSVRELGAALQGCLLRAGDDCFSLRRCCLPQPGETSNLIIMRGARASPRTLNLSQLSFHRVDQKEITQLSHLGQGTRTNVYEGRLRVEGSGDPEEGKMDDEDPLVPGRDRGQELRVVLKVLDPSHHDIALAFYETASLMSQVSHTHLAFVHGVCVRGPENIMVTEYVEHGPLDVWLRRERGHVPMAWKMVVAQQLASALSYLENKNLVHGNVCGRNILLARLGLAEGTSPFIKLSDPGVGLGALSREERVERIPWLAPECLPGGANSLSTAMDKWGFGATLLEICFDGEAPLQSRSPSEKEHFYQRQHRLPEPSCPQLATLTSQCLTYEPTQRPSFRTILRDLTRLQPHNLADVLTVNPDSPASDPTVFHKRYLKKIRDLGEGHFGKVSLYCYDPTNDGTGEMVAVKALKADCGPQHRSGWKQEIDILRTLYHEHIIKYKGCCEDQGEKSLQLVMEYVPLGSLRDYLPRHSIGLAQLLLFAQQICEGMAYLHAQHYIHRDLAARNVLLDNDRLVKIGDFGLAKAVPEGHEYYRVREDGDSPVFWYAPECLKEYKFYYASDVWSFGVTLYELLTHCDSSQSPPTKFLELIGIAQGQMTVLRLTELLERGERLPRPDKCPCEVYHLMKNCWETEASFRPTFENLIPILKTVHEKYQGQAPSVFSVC

IC50 [nM] | SMILES
100 to 1000 | CCc1cc(Nc2cc(NC(C)=O)ncc2-c2ccnc(CN3CCOCC3)n2)nc(C(C)(F)F)n1 [Example 909, N-(4-((2-(1,1-difluoroethyl)-6-ethylpyrimidin-4-yl)amino)-5-(2-(morpholinomethyl)pyrimidin-4-yl)pyridin-2-yl)acetamide]
≤ 10 | CCc1cc(Nc2cc(NC(C)=O)ncc2-c2ccc(F)c(CN3C[C@@H]4C[C@H]3CO4)n2)nc(C(C)(F)F)n1 [Example 906, N-(6-(((1S,4S)-2-oxa-5-azabicyclo[2.2.1]heptan-5-yl)methyl)-4′-((2-(1,1-difluoroethyl)-6-ethylpyrimidin-4-yl)amino)-5-fluoro-[2,3′-bipyridin]-6′-yl)acetamide]
≤ 10 | CCc1cc(Nc2cc(NC(C)=O)ncc2-c2ccc(F)c(CN3C[C@H]4C[C@@H](C3)O4)n2)nc(C(C)(F)F)n1 [Example 915, N-(6-(((1R,5S)-6-oxa-3-azabicyclo[3.1.1]heptan-3-yl)methyl)-4′-((2-(1,1-difluoroethyl)-6-ethylpyrimidin-4-yl)amino)-5-fluoro-[2,3′-bipyridin]-6′-yl)acetamide]
10 to 100 | CC(=O)Nc1cc(Nc2cc(C)nc(C(C)(F)F)n2)c(-c2ccc(P(C)(C)=O)nn2)cn1 [Example 917, N-(4-((2-(1,1-difluoroethyl)-6-methylpyrimidin-4-yl)amino)-5-(6-(dimethylphosphoryl)pyridazin-3-yl)pyridin-2-yl)acetamide]

SMILES | IC50 [nM]
CCc1cc(Nc2cc(NC(C)=O)ncc2-c2cnc(CN3CCOCC3)cn2)nc(C(C)(F)F)n1 [Example 899, N-(4-((2-(1,1-difluoroethyl)-6-ethylpyrimidin-4-yl)amino)-5-(5-(morpholinomethyl)pyrazin-2-yl)pyridin-2-yl)acetamide] | 10 to 100

same assay, conditions: MSD

SMILES | IC50 [nM]
COc1ccc(COc2cnc(NC(C)=O)cc2Nc2cc(C)nc(C(C)(F)F)n2)nc1 [Example 127, N-(4-((2-(1,1-difluoroethyl)-6-methylpyrimidin-4-yl)amino)-5-((5-methoxypyridin-2-yl)methoxy)pyridin-2-yl)acetamide] | ≤ 10
CC(=O)Nc1cc(Nc2cc(C)nc(C(C)(F)F)n2)c(OCc2cc(C)ccn2)cn1 [Example 133, N-(4-((2-(1,1-difluoroethyl)-6-methylpyrimidin-4-yl)amino)-5-((4-methylpyridin-2-yl)methoxy)pyridin-2-yl)acetamide] | ≤ 10
CC(=O)Nc1cc(Nc2cc(C)nc(C(C)(F)F)n2)c(OCc2cc(C#N)ccn2)cn1 [Example 129, N-(5-((4-cyanopyridin-2-yl)methoxy)-4-((2-(1,1-difluoroethyl)-6-methylpyrimidin-4-yl)amino)pyridin-2-yl)acetamide] | 10 to 100
CC(=O)Nc1cc(Nc2cc(C)nc(C(C)(F)F)n2)c(OCc2ncccn2)cn1 [Example 134, N-(4-((2-(1,1-difluoroethyl)-6-methylpyrimidin-4-yl)amino)-5-(pyrimidin-2-ylmethoxy)pyridin-2-yl)acetamide] | 100 to 1000
CC(=O)Nc1cc(Nc2cc(C)nc(C34COC(C3)C4)n2)c(-c2cc3n(n2)CCN(C)C3)cn1 [Example 141, N-(4-((2-(2-oxabicyclo[2.1.1]hexan-4-yl)-6-methylpyrimidin-4-yl)amino)-5-(5-methyl-4,5,6,7-tetrahydropyrazolo[1,5-a]pyrazin-2-yl)pyridin-2-yl)acetamide] | ≤ 10
CC(=O)Nc1cc(Nc2cc(C)nc(C(C)(F)F)n2)c(OCc2cc(C)sn2)cn1 [Example 115, N-(4-((2-(1,1-difluoroethyl)-6-methylpyrimidin-4-yl)amino)-5-((5-methylisothiazol-3-yl)methoxy)pyridin-2-yl)acetamide] | ≤ 10
COc1cccc(COc2cnc(NC(C)=O)cc2Nc2cc(C)nc(C(C)(F)F)n2)n1 [Example 132, N-(4-((2-(1,1-difluoroethyl)-6-methylpyrimidin-4-yl)amino)-5-((6-methoxypyridin-2-y1)methoxy)pyridin-2-yl)acetamide] | 10 to 100
CC(=O)Nc1cc(Nc2cc(C)nc(C(C)(F)F)n2)c(OCc2ccc(C)cn2)cn1 [Example 130, N-(4-((2-(1,1-difluoroethyl)-6-methylpyrimidin-4-yl)amino)-5-((5-methylpyridin-2-yl)methoxy)pyridin-2-yl)acetamide] | 10 to 100
CC(=O)Nc1cc(Nc2cc(C)nc(C(C)(F)F)n2)c(OCc2csc(C)n2)cn1 [Example 117, N-(4-((2-(1,1-difluoroethyl)-6-methylpyrimidin-4-yl)amino)-5-((2-methylthiazol-4-yl)methoxy)pyridin-2-yl)acetamide] | ≤ 10
COCCOc1cc(-c2cnc(NC(C)=O)cc2Nc2cc(C)nc(C(C)(F)F)n2)ncn1 [Example 249, N-(4-((2-(1,1-difluoroethyl)-6-methylpyrimidin-4-yl)amino)-5-(6-(2-methoxyethoxy)pyrimidin-4-yl)pyridin-2-yl)acetamide] | 10 to 100
CC(=O)Nc1cc(Nc2cc(C)nc(C(C)(F)F)n2)c(OCc2cnccn2)cn1 [Example 126, N-(4-((2-(1,1-difluoroethyl)-6-methylpyrimidin-4-yl)amino)-5-(pyrazin-2-ylmethoxy)pyridin-2-yl)acetamide] | 10 to 100
CC(=O)Nc1cc(Nc2cc(C)nc(C(C)(F)F)n2)c(OCc2nccs2)cn1 [Example 108, N-(4-((2-(1,1-difluoroethyl)-6-methylpyrimidin-4-yl)amino)-5-(thiazol-2-ylmethoxy)pyridin-2-yl)acetamide] | 10 to 100
CC(=O)Nc1cc(Nc2cc(C)nc(C(C)(F)F)n2)c(OCC(=O)N(C)C)cn1 [Example 103, 2-((6-acetamido-4-((2-(1,1-difluoroethyl)-6-methylpyrimidin-4-yl)amino)pyridin-3-yl)oxy)-N,N-dimethylacetamide] | 100 to 1000
CC(=O)Nc1cc(Nc2cc(C)nc(C(C)(F)F)n2)c(OCc2ccc(C)nc2)cn1 [Example 116, N-(4-((2-(1,1-difluoroethyl)-6-methylpyrimidin-4-yl)amino)-5-((6-methylpyridin-3-yl)methoxy)pyridin-2-yl)acetamide] | 10 to 100
CC(=O)Nc1cc(Nc2cc(C)nc(C(C)(F)F)n2)c(OCc2cnco2)cn1 [Example 122, N-(4-((2-(1,1-difluoroethyl)-6-methylpyrimidin-4-yl)amino)-5-(oxazol-5-ylmethoxy)pyridin-2-yl)acetamide] | ≤ 10
COCCOc1cnc(NC(C)=O)cc1Nc1cccc(C(F)CF)n1 (stereo not shown) [Example 73, N-(4-((6-(1,2-difluoroethyl)pyridin-2-yl)amino)-5-(2-methoxyethoxy)pyridin-2-yl)acetamide] | 10 to 100

Further lines, results first:

IC50 [nM] | SMILES
≤ 10 | COCc1ccc(-c2cnc(NC(C)=O)cc2Nc2nc(C(C)(F)F)ncc2OC)nc1 [Example 589, N-(4′-((2-(1,1-difluoroethyl)-5-methoxypyrimidin-4-yl)amino)-5-(methoxymethyl)-[2,3′-bipyridin]-6′-yl)acetamide]
10 to 100 | CC(=O)Nc1cc(Nc2cc(C)nc(C(C)(F)F)n2)c(-c2nn(C)cc2F)cn1 [Example 616, N-(4-((2-(1,1-difluoroethyl)-6-methylpyrimidin-4-yl)amino)-5-(4-fluorO1-methyl-1H-pyrazol-3-yl)pyridin-2-yl)acetamide]
≤ 10 | CC(=O)Nc1cc(Nc2cc(C)nc(C(C)(F)F)n2)c(-c2cc3n(n2)CC(C)N(C)C3)cn1 (stereo not shown) [Example 548, N-(4-((2-(1,1-difluoroethyl)-6-methylpyrimidin-4-yl)amino)-5-(5,6-dimethyl-4,5,6,7-tetrahydropyrazolo[1,5-a]pyrazin-2-yl)pyridin-2-yl)acetamide]
≤ 10 | CNC(=O)Nc1cc(Nc2cc(C)nc(C(C)(F)F)n2)c(-c2ccc(F)cn2)cn1 [Example 290, 1-(4′-((2-(1,1-difluoroethyl)-6-methylpyrimidin-4-yl)amino)-5-fluoro-[2,3′-bipyridin]-6′-yl)-3-methylurea]
≤ 10 | CC(=O)Nc1cc(Nc2cc(C)nc(C3CCOC3)n2)c(-c2cc3n(n2)CCN(C)C3)cn1 (stereo not shown) [Example 547, N-(4-((6-methyl-2-(tetrahydrofuran-3-yl)pyrimidin-4-yl)amino)-5-(5-methyl-4,5,6,7-tetrahydropyrazolo[1,5-a]pyrazin-2-yl)pyridin-2-yl)acetamide]
≤ 10 | CC(=O)Nc1cc(Nc2cc(C)nc(C(C)(F)F)n2)c(-c2ccc(C(F)F)nn2)cn1 [Example 546, N-(4-((2-(1,1-difluoroethyl)-6-methylpyrimidin-4-yl)amino)-5-(6-(difluoromethyl)pyridazin-3-yl)pyridin-2-yl)acetamide]
≤ 10 | CC(=O)Nc1cc(Nc2cc(C)nc(C34COC(C3)C4)n2)c(-c2ccc(N3CCOCC3)cn2)cn1 [Example 574, N-(4′-((2-(2-oxabicyclo[2.1.1]hexan-4-yl)-6-methylpyrimidin-4-yl)amino)-5-morpholinO[2,3′-bipyridin]-6′-yl)acetamide]
≥ 1000 | COc1nc(-c2cnc(NC(C)=O)cc2Nc2cc(C)nc(C(C)(F)F)n2)ncc1F [Example 659, N-(4-((2-(1,1-difluoroethyl)-6-methylpyrimidin-4-yl)amino)-5-(5-fluorO4-methoxypyrimidin-2-yl)pyridin-2-yl)acetamide]
≥ 1000 | CC(=O)Nc1cc(Nc2cc(C)nc(C(C)(F)F)n2)c(-c2nccc(N3CCOCC3)n2)cn1 [Example 674, N-(4-((2-(1,1-difluoroethyl)-6-methylpyrimidin-4-yl)amino)-5-(4-morpholinopyrimidin-2-yl)pyridin-2-yl)acetamide]
10 to 100 | CC(=O)Nc1cc(Nc2cc(C)nc(C(C)(F)F)n2)c(-c2ncc3c(n2)COC3)cn1 [Example 678, N-(4-((2-(1,1-difluoroethyl)-6-methylpyrimidin-4-yl)amino)-5-(5,7-dihydrofuro[3,4-d]pyrimidin-2-yl)pyridin-2-yl)acetamide]
